In brackets after ≈: the same amount, converted by molar mass. Read-outs that look alike come from different tables or passages of the source.
Columns and labels:
[1] = test system: PC-3 prostate cancer cells; assay: Example T: sensitisation of PC-3 cells to doxorubicin, oxaliplatin, paclitaxel or vincristine, Wst1; assay type: cell-based, human; settings: PC-3 cells, 72 hours; for viability at 0.4 µM: compound 0.4 μM alone; for Doxorubicin 3.5 μM: percent cell survival / Oxaliplatin 100 μM: percent cell survival / Paclitaxel 50 μM: percent cell survival / Vincristine 100 nM: percent cell survival: chemotherapy agent alone normalized to 100%
THP-1 cells = assay: Example D: LPS-triggered THP-1 cell death assay, acute/5-hour and chronic/48-hour; assay type: cell-based, Human; settings: for activity relative to AC in the LPS-triggered THP-1 cell death assay, in words: 0.1 μM, 5-hour and 48-hour time points
Description: Compounds of the invention were tested at 0.1 μM versus AC in the LPS-triggered THP-1 cell death assay. Both acute/5-hour and chronic/48-hour phases of cell death were assessed. Compounds were screened in batches with DMSO as the negative control and AC as the high activity control.

S. cerevisiae = assay: Example I: Saccharomyces cerevisiae growth inhibition (OD 600 nm); assay type: cell-based; settings: Saccharomyces cerevisiae, 18 hour incubation at 30° C., OD 600 nm, XLfit; for IC50: read-out: IC50, uM (50% inhibition of fungal growth); for MIC: read-out: MIC, uM (99% of inhibition of fungal growth)
[2] = test system: 4T1 murine breast cancer cells; assay: Example S: in vitro anticancer screen, 4T1 cells, Wst1; assay type: cell-based, mouse; settings: Mus musculus, 4T1, 18 h, 18 hr, Wst1; for viability at 1 µM: read-out: 4T1 1 μM, percent of cancer cell survival relative to vehicle treated cells; for viability at 5 µM: read-out: 4T1 5 μM, percent of cancer cell survival relative to vehicle treated cells
Method in brief: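 Read-out is Wst1 absorbance (450 nm, reference 630 nm) after roughly 2 hr dye incubation, giving percent cell survival versus vehicle. Before that, compounds at 1 μM or 5 μM were applied for 18 hr to 4T1 cells plated at 1×10^4 per well.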

[3] = test system: PC3 human prostate cancer cells; assay: Example S: in vitro anticancer screen, PC-3 cells, Wst1; assay type: cell-based; settings: Homo sapiens, PC-3, approximately 20 hours, Wst1, read-out: PC-3, percent of cancer cell survival relative to vehicle treated cells
Method in brief: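 Values give percent survival relative to vehicle, read by Wst1 absorbance (450/630 nm) after 2 h dye incubation, in triplicate. Cells were seeded at 2×10^4/well and treated about 20 h with compound at 0.4, 0.5 or 2.5 μM, depending on compound.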

[4] = test system: Cryptococcus neoformans strains; assay: Example N: MIC and MFC (CLSI) against Cryptococcus neoformans; assay type: cell-based; parameters: MIC at 50% inhibition: unit not given here; settings: for MIC / MFC: Cryptococcus neoformans, three clinical strains; for MIC: read-out: MIC 100%, Range, incubated for 72 hrs
Description: (§1) The objective of this study was to determine the antifungal activity of eight experimental compounds against a representative panel of fungal isolates, including Candida albicans, C. glabrata, Cryptococcus neoformans, Trichophyton rubrum, Aspergillus fumigatus, and Rhizopus spp. Antifungal activity was measured by minimum inhibitory concentration (MIC) and minimum fungicidal concentration (MFC).
(§2) Three recent clinical strains of each species, taken from the culture collection at the Center for Medical Mycology, Case Western University, were tested.
(§3) Compounds in powder form were dissolved in DMSO. Serial dilutions of each compound were then prepared in RPMI-1640 in a range of […].
(§4) MIC testing was performed according to the CLSI M27-A3 and M38-A2 standards for the susceptibility testing of yeasts and filamentous fungi, respectively (1, 2). Test isolates were subcultured from frozen slants onto potato dextrose agar plates (Trichophyton rubrum was subcultured onto oatmeal plates for conidia production) and checked for purity. Inocula were then prepared in RPMI-1640 (YNB for Cryptococcus) to a concentration of 0.5-2.5×10^3 colony-forming units (CFU)/ml or 0.4-5×10^4 conidia/ml for yeast and filamentous fungi, respectively.
(§5) MFC determinations were performed according to the modifications previously described by Canton et al. and Ghannoum and Isham. (3, 4) Specifically, the total contents of each clear well from the MIC assay were subcultured onto potato dextrose agar. To avoid antifungal carryover, the aliquots were allowed to soak into the agar and then were streaked for isolation once dry, thus removing the cells from the drug source.

[5] = test system: Trichophyton rubrum strains; assay: Example N: MIC and MFC (CLSI) against Trichophyton rubrum; assay type: cell-based; settings: for MIC: read-out: MIC 100%, Range, incubated for 96 hrs, three clinical strains; for MFC: three clinical strains
Description: as §1, §2, §3, §4, §5

Candida glabrata strains = assay: Example N: MIC and MFC (CLSI) against Candida glabrata; assay type: cell-based; settings: for cidal activity (MFC within 4 dilutions of the MIC), in words: 3 strains; for MIC50 / MIC / MFC: Nakaseomyces glabratus; for MIC: read-out: MIC 100%; for MFC: range over Candida glabrata strains, in 48 hr
Description: as §1, §2, §3, §4, §5

Rhizopus strains = assay: Example N: MIC and MFC (CLSI) against Rhizopus; assay type: cell-based, Rhizopus spp.; settings: for MIC50 / MIC: Rhizopus; for MFC: range over Rhizopus strains, in 48 hr
Description: as §1, §2, §3, §4, §5

[6] = Homo sapiens, Wst1, vehicle = 100, read-out: No Chemo: percent cell survival
[7] = compound 0.4 μM + doxorubicin 3.5 μM
[8] = compound 0.4 μM + oxaliplatin 100 μM
[9] = compound 0.4 μM + paclitaxel 50 μM
[10] = compound 0.4 μM + vincristine 100 nM

Row | Structure (SMILES) | viability at 0.4 µM [1, 6] | Doxorubicin 3.5 μM: percent cell survival [1, 7] | Oxaliplatin 100 μM: percent cell survival [1, 8] | Paclitaxel 50 μM: percent cell survival [1, 9] | IC50 (S. cerevisiae) | MIC (S. cerevisiae) | MIC [4] | MFC [4] | MIC [5] | MFC [5] | MIC50 (Candida glabrata strains; 24 h) | MIC (Candida glabrata strains; 24 h) | MIC50 (Candida glabrata strains; 48 h) | MIC (Candida glabrata strains; 48 h) | MFC (Candida glabrata strains) | MIC50 (Rhizopus strains; 24 h) | MIC (Rhizopus strains; 24 h, read-out: MIC 100%) | MIC50 (Rhizopus strains; 48 h) | MIC (Rhizopus strains; 48 h, read-out: MIC 100%) | MFC (Rhizopus strains) | further results
1 | Cc1ccc(OCCCCCCCCNc2ccnc3ccccc23)cc1 [BF, N-[8-(p-Tolyloxy)octyl]quinolin-4-amine] | 92.8% | 40.9% | 37.2% | 57.1% | 20.8 µM | 32 µM (≈ 11.6 µg/mL) | – | – | – | – | – | – | – | – | – | – | – | – | – | – | Vincristine 100 nM: percent cell survival [1, 10]: 74.1%; Viable cell percent change, Chronic/48-hour, Mean (THP-1 cells; 10 ng/ml LPS, 0.1 μM test compound, 48 hours): 31.64%; viability at 1 µM [2]: 17.2%; viability at 5 µM [2]: 19%; viability at 0.4 µM [3]: 92.8%
2 | CCCCCCOc1cccc(CNc2ccnc3ccccc23)c1 [Compound AC, N-[3-(Hexyloxy)benzyl]quinolin-4-amine] | 61.5% | 32.8% | 30% | 14% | 27.7 µM | 47.7 µM (≈ 15.9 µg/mL) | 0.25 to 4 mg/L (≈ 0.747 to 12 µM) | 8 mg/L (≈ 23.9 µM) | 0.5 to 4 mg/L (≈ 1.49 to 12 µM) | 0.5 to 4 mg/L (≈ 1.49 to 12 µM) | 0.5 to 1 mg/L (≈ 1.49 to 2.99 µM) | 1 to 2 mg/L (≈ 2.99 to 5.98 µM) | 1 to 2 mg/L (≈ 2.99 to 5.98 µM) | 2 to 4 mg/L (≈ 5.98 to 12 µM) | 4 to 8 mg/L (≈ 12 to 23.9 µM) | 0.12 to 0.25 mg/L (≈ 0.359 to 0.747 µM) | 0.5 mg/L (≈ 1.49 µM) | 0.5 mg/L (≈ 1.49 µM) | 0.5 to 1 mg/L (≈ 1.49 to 2.99 µM) | 16 to 64 mg/L (≈ 47.8 to 191 µM) | Vincristine 100 nM: percent cell survival [1, 10]: 34.1%; viability at 1 µM [2]: 23.3%; viability at 5 µM [2]: 19.3%; cidal activity (MFC within 4 dilutions of the MIC), in words (Candida glabrata strains): cidal against all of the C. glabrata strains tested; MIC at 50% inhibition (Rhizopus strains; 24 hrs): <0.12-0.25; MIC at 100% inhibition (Rhizopus strains; 24 hrs): 0.5 mg/L (≈ 1.49 µM); MIC (Rhizopus strains; read-out: MIC at 50% inhibition, 48 hr): 0.5 mg/L (≈ 1.49 µM); MIC (Rhizopus strains; read-out: MIC at 100% inhibition, 48 hr): 0.5 to 1 mg/L (≈ 1.49 to 2.99 µM); viability at 0.4 µM [3]: 61.5%
3 | CCCCCCCCCCNc1ncnc2ccccc12 [Compound AH, N-(Decyl)quinazolin-4-amine] | – | – | – | – | – | – | 0.25 to 2 mg/L (≈ 0.876 to 7.01 µM) | 1 to 2 mg/L (≈ 3.5 to 7.01 µM) | 0.25 to 4 mg/L (≈ 0.876 to 14 µM) | 0.25 to 16 mg/L (≈ 0.876 to 56.1 µM) | 2 mg/L (≈ 7.01 µM) | 4 to 8 mg/L (≈ 14 to 28 µM) | 4 to 8 mg/L (≈ 14 to 28 µM) | 4 to 8 mg/L (≈ 14 to 28 µM) | 8 to 64 mg/L (≈ 28 to 224 µM) | 0.25 to 0.5 mg/L (≈ 0.876 to 1.75 µM) | 2 mg/L (≈ 7.01 µM) | 2 mg/L (≈ 7.01 µM) | 2 mg/L (≈ 7.01 µM) | 64 mg/L (≈ 224 µM) | MIC at 50% inhibition [4]: 0.004-2; cidal activity (MFC within 4 dilutions of the MIC), in words ([4]; 3 isolates): cidal against all 3 neoformans isolates; activity relative to AC in the LPS-triggered THP-1 cell death assay, in words (THP-1 cells): more active than AC at the chronic/48-hour time point; MIC at 100% inhibition (Rhizopus strains; 24 hrs): 2 mg/L (≈ 7.01 µM); MIC at 50% inhibition (Rhizopus strains; 48 hr): 2 mg/L (≈ 7.01 µM); MIC at 100% inhibition (Rhizopus strains; 48 hr): 2 mg/L (≈ 7.01 µM)
4 | CCCCCCCCCCNc1ccnc2ccccc12 [Compound AG, N-(Decyl)quinolin-4-amine] | – | – | – | – | 19.4 µM | 24.4 µM (≈ 6.93 µg/mL) | 4 mg/L (≈ 14.1 µM) | 8 to 16 mg/L (≈ 28.1 to 56.2 µM) | 0.25 to 2 mg/L (≈ 0.879 to 7.03 µM) | 0.5 to 2 mg/L (≈ 1.76 to 7.03 µM) | 0.25 to 1 mg/L (≈ 0.879 to 3.52 µM) | 0.5 to 2 mg/L (≈ 1.76 to 7.03 µM) | 0.5 to 2 mg/L (≈ 1.76 to 7.03 µM) | 0.5 to 2 mg/L (≈ 1.76 to 7.03 µM) | 4 mg/L (≈ 14.1 µM) | 1 to 2 mg/L (≈ 3.52 to 7.03 µM) | 2 mg/L (≈ 7.03 µM) | 2 to 4 mg/L (≈ 7.03 to 14.1 µM) | 2 to 4 mg/L (≈ 7.03 to 14.1 µM) | 4 to 16 mg/L (≈ 14.1 to 56.2 µM) | viability at 2.5 µM ([1]; Homo sapiens, compound 2.5 μM alone, Wst1, vehicle = 100, read-out: No Chemo: percent cell survival): 18.4%; Doxorubicin 3.5 μM: percent cell survival ([1]; compound 2.5 μM + doxorubicin 3.5 μM): 21.1%; Oxaliplatin 100 μM: percent cell survival ([1]; compound 2.5 μM + oxaliplatin 100 μM): 27.1%; Paclitaxel 50 μM: percent cell survival ([1]; compound 2.5 μM + paclitaxel 50 μM): 21.8%; Vincristine 100 nM: percent cell survival ([1]; compound 2.5 μM + vincristine 100 nM): 17.1%; activity relative to AC in the LPS-triggered THP-1 cell death assay, in words (THP-1 cells): more active than AC at the chronic/48-hour time point; cidal activity (MFC within 4 dilutions of the MIC), in words (Candida glabrata strains): cidal against all of the C. glabrata strains tested; viability at 2.5 µM ([3]; 2.5 μM): 18.4%
